The text below walks through data of patent US20070191373A1, “Heterocyclic compounds for use in the treatment of viral infections” (priority 2003, published 2007).

SMILES strings stand for the structures. Read-outs that look alike come from different tables or passages of the source. Where only a bound is given, the exact number is not on record here.

For one data set, the system named is CMV strain AD169. In words: CMV strain AD169 induced cytopathicity in HEL cells. The format is cell-based, cytomegalovirus (CMV). Conditions: Human betaherpesvirus 5, AD169, 168 h, vs untreated control. The method, then:
(§1) Products where X═Y═N, Z=Q=O, U═V═CH and R^1, R^4 and R^8 are as given in Tables 1 and 2 below embodying the present invention were tested in vitro in tissue cultures for toxicity and for potent antiviral actions with respect to cytomegalovirus (CMV).
EC50/μm CMV-AD169 is the drug concentration in μM required to reduce by 50% CMV strain AD169 induced cytopathicity in human embryonic lung fibroblast (HEL) cells measured 7 days post infection compared to untreated control.
(§2) Further details of the methodology employed can be found in McGuigan et al. J. Med. Chem., 1999, 42, 4479-4484.
In general terms: Cytopathic effects are the visible damage that an infection or toxin causes in cultured cells.

The test system of another data set is CMV strain Davis. In words: CMV strain Davis induced cytopathicity in HEL cells. The format is cell-based, cytomegalovirus (CMV). Conditions: Human betaherpesvirus 5, 168 h, vs untreated control. The method, then:
as §1
EC50/μM CMV Davis is the drug concentration in μM required to reduce by 50% CMV strain Davis induced cytopathicity in human embryonic lung fibroblast (HEL) cells measured 7 days post infection compared to untreated control.
as §2

Data set [1] can be described thus: Toxicity in tissue culture, reduction of cell number. Conditions: human, human embryonic lung fibroblast (HEL) cells, concentration reducing cell number by 50%. The class given is cell-based. On the procedure:
as §1
CC50/μM is the compound concentration required to reduce the cell number by 50%.
as §2

A short description of data set [2]: Preliminary rodent trial, bioavailability and half life after i.p. dosing. The class given is in vivo.
Test in data set [3]: not given
This is another data set of the same source.

The mark [4] stands for this setting: Table 2, 7 days post infection, read-out: EC50/μM 2 CMV Davis.
The mark [5] stands for this setting: Table 1, 7 days post infection, read-out: EC50/μM 1 CMV Davis.

Usually CC50 stands for the concentration giving 50% cytotoxicity. The term melting point denotes the temperature of the solid-liquid transition.

In the case of `CCCCCCCc1cc2cnc(OC(CC)CC)nc2o1` [Cf2189, 6-Heptyl-2-(1-ethyl-propoxy)-furo[2,3-d]pyrimidine], the melting point was in the range of 70 to 71 °C. In addition, the EC50 in the data set with CMV strain AD169 (Table 2, 7 days post infection) was greater than 5 µM. Also, the EC50 in the data set on CMV strain Davis (setting [4]) is 12 µM. Half-maximal cytotoxicity in data set [1] (Table 2) (CC50) was put at 98 µM.

`CCCCCOc1ncc2cc(CCCC)oc2n1` [Cf 2327] showed a melting point of 51 to 52 °C.

`CCCCCCCc1cc2cnc(OCCCCC)nc2o1` [Cf2191, 6-Heptyl-2-pentyloxy-furo[2,3-d]pyrimidine]: the melting point lay in the range of 48 to 49 °C. The EC50 in the data set on CMV strain AD169 (Table 2, 7 days post infection) was greater than 5 µM. Moreover, in the data set on CMV strain Davis (setting [4]), the EC50 turned out to be 16 µM. This compound had a CC50 in data set [1] (Table 2) of 1110 µM.

Turning to `CCCCCCCCCCc1cc2cn(CC3CCCO3)c(=O)nc2o1` (stereo not shown) [Cf2309, 6-Decyl-3-(tetrahydro-furan-2-ylmethyl)-3H-furo[2,3-d]pyrimidin-2-one], the EC50 with CMV strain AD169 (Table 1, 7 days post infection) turned out to be 0.78 µM; in the data set with CMV strain Davis (setting [5]), 0.84 µM. This compound displayed a CC50 in data set [1] (Table 1) of 49 µM.

In the case of `CCCCCCCCCCc1cc2cn(C3CCCCC3)c(=O)nc2o1` [Cf2295, 3-Cyclohexyl-6-decyl-2,3-dihydrofuro[2,3-d]pyrimidin-2-one], the EC50 with CMV strain AD169 (Table 1, 7 days post infection) is 38 µM; in the data set on CMV strain Davis (setting [5]) it was 50 µM. For the same compound, the CC50 in data set [1] (Table 1) was greater than 200 µM.

In the case of `CCCCCCCCCCc1cc2cn(Cc3ccc(C)cc3)c(=O)nc2o1` [Cf2314, 6-Decyl-3-(4-methylbenzyl)-3H-furo[2,3-d]pyrimidin-2-one], the EC50 with CMV strain AD169 (Table 1, 7 days post infection) is greater than 40 µM; in the data set on CMV strain Davis (setting [5]) it was greater than 40 µM. Also, the CC50 in data set [1] (Table 1) was greater than 200 µM.

As for `CCCCCn1cc2cc(CCCC)oc2nc1=O` [Cf2195, 6-Butyl-3-pentyl-3H-furo[2,3-d]pyrimidin-2-one], the EC50 was greater than 50 µM in the data set with CMV strain AD169 (Table 1, 7 days post infection) and greater than 50 µM with CMV strain Davis (setting [5]). The CC50 in data set [1] (Table 1) was greater than 200 µM.

In the case of `CCCCCCCCCCc1cc2cnc(OCCCCC)nc2o1` [Cf2247], the EC50 in the data set on CMV strain AD169 (Table 2, 7 days post infection) is greater than 200 µM; in the data set on CMV strain Davis (setting [4]) it was greater than 200 µM. In data set [1] (Table 2), this compound registered a 50% cytotoxic concentration (CC50) greater than 200 µM.

On to `CCCCCCCCCCc1cc2cn(CC3CCCCC3)c(=O)nc2o1` [Cf2275, 3-Cyclohexylmethyl-6-decyl-3H-furo[2,3-d]pyrimidin-2-one], for which the EC50 in the data set on CMV strain AD169 (Table 1, 7 days post infection) was greater than 200 µM; in the data set on CMV strain Davis (setting [5]), greater than 200 µM. For the same compound, the CC50 in data set [1] (Table 1) is greater than 200 µM.

For the compound `CCCCc1cc2cnc(OC3CCCC3)nc2o1` [Cf2159, 6-Butyl-2-cyclopentyloxy-furo[2,3-d]pyrimidine], the melting point fell in the range of 69 to 71 °C. In the data set on CMV strain AD169 (Table 2, 7 days post infection), the EC50 was determined as 8 µM. The EC50 in the data set on CMV strain Davis (setting [4]) is 7 µM. In data set [1] (Table 2), the CC50 stood at 108 µM.

For `CCCCc1cc2cnc(OC(CC)CC)nc2o1` [Cf2193, 6-Butyl-2-(1-ethyl-propoxy)-furo[2,3-d]pyrimidine], the EC50 is greater than 20 µM in the data set with CMV strain AD169 (Table 2, 7 days post infection) and greater than 20 µM in the data set with CMV strain Davis (setting [4]). The CC50 in data set [1] (Table 2) is 98 µM.

Turning to `CCCCCCCCCCc1cc2cn(Cc3ccccc3)c(=O)nc2o1` [Cf2308, 3-Benzyl-6-decyl-3H-furo[2,3-d]pyrimidin-2-one], the EC50 in the data set on CMV strain AD169 (Table 1, 7 days post infection) was greater than 40 µM; with CMV strain Davis (setting [5]), greater than 40 µM. The CC50 in data set [1] (Table 1) was greater than 200 µM.

For the compound `CCCCCCCCCCc1cc2cn(Cc3ccc(OC)cc3)c(=O)nc2o1` [Cf2316, 6-Decyl-3-(4-methoxybenzyl)-3H-furo[2,3-d]pyrimidin-2-one], the EC50 was greater than 200 µM with CMV strain AD169 (Table 1, 7 days post infection) and greater than 200 µM with CMV strain Davis (setting [5]). For the same compound, the CC50 in data set [1] (Table 1) is greater than 200 µM.

With `CCCCCCCCCCc1cc2cn(CCCC)c(=O)nc2o1` [Cf2306, 3-Butyl-6-decyl-3H-furo[2,3-d]pyrimidin-2-one], the EC50 with CMV strain AD169 (Table 1, 7 days post infection) was greater than 200 µM; in the data set on CMV strain Davis (setting [5]), greater than 200 µM. Further, the CC50 in data set [1] (Table 1) was greater than 200 µM.

`CCCCCCCc1cc2cn(CCCCC)c(=O)nc2o1` [Cf2192, 6-Heptyl-3-pentyl-3H-furo[2,3-d]pyrimidin-2-one]: the EC50 in the data set with CMV strain AD169 (Table 1, 7 days post infection) is greater than 200 µM; with CMV strain Davis (setting [5]), greater than 200 µM. The CC50 in data set [1] (Table 1) was greater than 200 µM.

As for `CCCCCCCCCCc1cc2cnc(OCc3ccc(OC)cc3)nc2o1` [Cf2315, 6-Decyl-2-(4-methoxybenzyloxy)-3H-furo[2,3-a]pyrimidine], the EC50 was found to be 3.3 µM with CMV strain AD169 (Table 2, 7 days post infection) and 2.9 µM with CMV strain Davis (setting [4]). In data set [1] (Table 2), this compound gave a CC50 greater than 200 µM.

For the compound `CCCCCCCc1cc2cnc(OC3CCCC3)nc2o1` [Cf2161, 6-Heptyl-2-cyclopentyloxy-furo[2,3-d]pyrimidine], the EC50 turned out to be 3 µM with CMV strain AD169 (Table 2, 7 days post infection) and 5 µM in the data set on CMV strain Davis (setting [4]). In addition, in data set [1] (Table 2), half-maximal cytotoxicity (CC50) was put at 132 µM. For the same compound, in data set [2], the bioavailability result is reported as “significant”. Besides, in data set [3] (50 mg/kg/day), the “visible in vivo toxicity” value is recorded as “no visible in vivo toxicity”. In data set [3] (in vivo), the “histology: toxicity against brain, thymus, liver, lungs, kidney, breast, testi, ovum and spleen tissue” value is listed as “no detectable toxicity”.

Take `CCCCCCCc1cc2cn(C3CCCO3)c(=O)nc2o1` (stereo not shown) [Cf2196, 6-Heptyl-3-(tetrahydro-furan-2-yl)-3H-furo[2,3-d]pyrimidin-2-one]: the EC50 with CMV strain AD169 (Table 1, 7 days post infection) was greater than 20 µM; with CMV strain Davis (setting [5]), greater than 20 µM. The compound also yielded a CC50 in data set [1] (Table 1) of 46 µM.

`CCCCCCCCCCc1cc2cnc(OC3CCCC3)nc2o1` [Cf2250, 2-Cyclopentyloxy-6decyl-2,3-dihydrofuro[2,3-d]pyrimidine]: the EC50 in the data set with CMV strain AD169 (Table 2, 7 days post infection) is greater than 50 µM; in the data set on CMV strain Davis (setting [4]), greater than 50 µM. In data set [1] (Table 2), this compound returned a CC50 greater than 200 µM.
